This passage reports IC50 and EC50 results from US20110065760A1, “COMPOUNDS FOR THE INHIBITION OF ROTAMASES AND USE THEREOF” (Jerini AG, priority 2002, published 2011).

For one series, the target named is hCyp18 (Homo sapiens, UniProt P62937). Put plainly: protease-coupled PPIase assay, hCyp18. The class given is biochemical. Conditions: 10 nM hCyp18, substrate Suc-Ala-Phe-Pro-Phe-pNA, chymotrypsin, pH 7.8, 6° C.; read-out: IC50 class, Target T-3 (hCyp18).
Another series has as its target EcParvulin (Escherichia coli, UniProt P0A9L5). In words: protease-coupled PPIase assay, EcParvulin. The class given is biochemical. Conditions: 20 nM EcParvulin, substrate Suc-Ala-Phe-Pro-Phe-pNA, chymotrypsin, pH 7.8, 6° C.; read-out: IC50 class, Target T-5 (EcParv).
The target in another series is hPin1 (Homo sapiens, UniProt Q13526). Put plainly: protease-coupled PPIase assay, hPin1. Conditions: 6 nM hPin1, substrate Ac-Ala-Ala-Ser(PO3H2)-Pro-Arg-pNA, trypsin, pH 7.8, 6° C.; read-out: IC50 class, Target T-1 (hPin1). The format is biochemical.
Chain of hPin1 (Q13526 whole entry): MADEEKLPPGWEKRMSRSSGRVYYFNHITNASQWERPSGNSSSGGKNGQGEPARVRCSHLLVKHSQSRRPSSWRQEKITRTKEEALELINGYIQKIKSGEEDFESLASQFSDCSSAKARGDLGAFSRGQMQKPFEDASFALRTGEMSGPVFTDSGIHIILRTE
For a further series, the target named is hFKBP12 (Homo sapiens, UniProt P62942). Put plainly: protease-coupled PPIase assay, hFKBP12. The class given is biochemical. Conditions: 20 nM hFKBP12, substrate Suc-Ala-Phe-Pro-Phe-pNA, chymotrypsin, pH 7.8, 6° C.; read-out: IC50 class, Target T-2 (hFKBP12).
Chain of hFKBP12 (P62942 whole entry): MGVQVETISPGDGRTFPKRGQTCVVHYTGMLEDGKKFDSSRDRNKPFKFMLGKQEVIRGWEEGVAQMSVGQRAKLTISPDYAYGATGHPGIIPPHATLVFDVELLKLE
The target in the next series is LpCyp18 (Legionella pneumophila, UniProt Q5ZRZ4). In words: biochemical. Conditions: IC50 class, Target T-4 (LpCyp18).
Chain of LpCyp18 (Q5ZRZ4 1-164): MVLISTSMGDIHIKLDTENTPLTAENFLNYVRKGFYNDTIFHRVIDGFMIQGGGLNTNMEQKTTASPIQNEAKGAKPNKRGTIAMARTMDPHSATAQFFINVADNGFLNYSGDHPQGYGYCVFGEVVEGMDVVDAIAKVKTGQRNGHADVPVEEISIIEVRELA
The nature of series [1]: WST-1 cytotoxicity assay, HL-60. The note with it: human, HL-60 cells (acute myeloid leukemia); WST-1, 48 h incubation; read-out: EC50 class, cytotoxic effect, CL-1 (HL-60). The class given is cell-based. The procedure: For this cytotoxic evaluation of the compounds the commercial available WST-1 assay (Roche) was used according to the manufacturer's instructions. The assay is based on the cleavage of the tetrazolium salt WST-1 by mitochondrial dehydrogenases found in viable cells. In general compounds were added to cells cultured in 96-well plates at 37° C. After 48 h of incubation 10 μl of WST-1 solution was added. The formazan dye was analyzed with an ELISA plate reader at (450 vs. 620) nm. CL-1: human acute myeloid leukemia, HL-60 CL-2: human cervix carcinoma, HeLa CL-3: human prostate carcinoma, PC-3 CL-4: human colon adenocarcinoma, Caco-2 CL-5: human breast adenocarcinoma, MCF-7
In general terms: Formazan colour is commonly taken as a measure of viable cells.

SMILES strings stand for the structures. A value given as a limit tells only on which side of the number the result lay.

Chain of EcParvulin (P0A9L5 whole entry): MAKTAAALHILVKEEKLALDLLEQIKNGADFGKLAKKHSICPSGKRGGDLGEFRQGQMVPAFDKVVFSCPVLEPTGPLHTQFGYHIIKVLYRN
Chain of hCyp18 (P62937 whole entry): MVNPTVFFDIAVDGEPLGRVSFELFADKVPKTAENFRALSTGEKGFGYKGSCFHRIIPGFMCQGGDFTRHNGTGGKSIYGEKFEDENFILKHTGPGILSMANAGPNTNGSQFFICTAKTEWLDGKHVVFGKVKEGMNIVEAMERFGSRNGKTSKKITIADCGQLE

What is called IC50 is the concentration needed to halve the response being measured. For `Oc1c(Cl)cc(Cl)cc1NCc1ccco1` [Compound 647], the IC50 on hCyp18 is over 100 µM; at EcParvulin, over 100 µM; on hPin1, 1 to 10 µM; on hFKBP12 it was over 100 µM; on LpCyp18, over 100 µM.

`Oc1ccc(NCc2ccccc2Sc2ccc(Cl)cc2)c(O)c1` [Compound 672]: the IC50 was in the range of 1 to 10 µM at hCyp18 and 10 to 50 µM against LpCyp18.

On to `O=C(NCc1ccccc1)Nc1cc(Cl)c(O)c(Cl)c1` [Compound 700], for which the half-maximal inhibitory concentration (IC50) on hCyp18 was over 100 µM; on EcParvulin it was 10 to 50 µM; at hPin1, under 1 µM; on hFKBP12 it was over 100 µM; at LpCyp18, over 100 µM.

For the molecule `Oc1c(Cl)cc(Cl)cc1NCc1cccc(Oc2ccc(Cl)cc2)c1` [Compound 482], the IC50 was 10 to 50 µM at hCyp18; over 100 µM on EcParvulin; 1 to 10 µM on hPin1; over 100 µM at hFKBP12; over 100 µM against LpCyp18.

`O=C(CCc1ccccc1)Nc1cc(Cl)c(O)c(Cl)c1` [Compound 1293]: the IC50 at hCyp18 is over 100 µM; at EcParvulin, 10 to 50 µM; on hPin1 it was 1 to 10 µM; on hFKBP12 it was over 100 µM; against LpCyp18, over 100 µM.

On to `O=C(Cc1ccc2c(c1)OCO2)Nc1cc(Cl)c(O)c(Cl)c1` [Compound 1295], for which the IC50 at hCyp18 is over 100 µM; at EcParvulin, 1 to 10 µM; at hPin1, 1 to 10 µM; on hFKBP12 it was over 100 µM; against LpCyp18, over 100 µM.

With `Cc1c(Cl)cc(NC(=O)Nc2ccccc2)c(O)c1Cl` [Compound 120], the 50% inhibitory concentration (IC50) was 10 to 50 µM on hCyp18, 10 to 50 µM on hPin1, 50 to 100 µM at hFKBP12 and over 100 µM against LpCyp18.

As for `CC(C)(C)NC(=O)Nc1cc(-c2nc3ccccc3s2)cc(Cl)c1O` [Compound 636], the IC50 on hPin1 was under 1 µM.

Regarding `Cc1c(Cl)cc(NC(=S)Nc2ccccc2C(F)(F)F)c(O)c1Cl` [Compound 266], the IC50 was over 100 µM at hCyp18; 1 to 10 µM at EcParvulin; under 1 µM on hPin1; over 100 µM on hFKBP12; over 100 µM at LpCyp18.

As to `O=C(Nc1cc(Br)cc(F)c1O)NC12CC3CC(CC(C3)C1)C2` [Compound 142], the half-inhibitory concentration (IC50) at hPin1 was under 1 µM.

`Cc1c(Cl)cc(NCc2ccccc2)c(O)c1Cl` [Compound 655]: the 50% inhibitory concentration (IC50) at hCyp18 was over 100 µM; on EcParvulin, 10 to 50 µM; on hPin1, 10 to 50 µM; at hFKBP12 it was over 100 µM; at LpCyp18, over 100 µM.

For the molecule `CCOC(=O)C(Cc1ccccc1)NC(=O)Nc1cc(Cl)c(C)c(Cl)c1O` (stereo not shown) [Compound 593], the IC50 on hPin1 was 1 to 10 µM.

For `CC(C)(C)NC(=O)Nc1cc(NC(=O)NC2CCCCC2)cc(Cl)c1O` [Compound 605], the IC50 was 10 to 50 µM on hCyp18; 1 to 10 µM at EcParvulin; under 1 µM at hPin1; over 100 µM on hFKBP12; over 100 µM against LpCyp18.

As to `CC(C)(C)NC(=O)Nc1cc(Br)cc(F)c1O` [Compound 127], at hPin1, the 50% inhibitory concentration (IC50) was 1 to 10 µM.

On to `O=C(Nc1cc(Cl)c(O)c(Cl)c1)c1ccco1` [Compound 1299], for which the IC50 at hCyp18 was under 1 µM; on EcParvulin it was 10 to 50 µM; on hPin1, under 1 µM; at hFKBP12 it was over 100 µM; at LpCyp18 it was over 100 µM.

On to `Cc1c(Cl)cc(NC(=S)NC(C)(C)CC(C)(C)C)c(O)c1Cl` [Compound 257], for which the IC50 on hPin1 was under 1 µM.

For `Cc1c(Cl)cc(NC(=O)NCCc2nc3ccccc3[nH]2)c(O)c1Cl` [Compound 656], on hPin1, the IC50 was under 1 µM.

As to `O=C(NCCc1ccccc1)Nc1cc(Cl)c(O)c(NCc2ccccc2Sc2ccc(Cl)cc2)c1` [Compound 610], the concentration for half-maximal inhibition (IC50) on hPin1 was under 1 µM.

On to `O=C(Nc1cc(Cl)c(O)c(Cl)c1)c1ccccc1` [Compound 1298], for which the IC50 is over 100 µM on hCyp18; 10 to 50 µM at EcParvulin; under 1 µM at hPin1; over 100 µM at hFKBP12; over 100 µM at LpCyp18.

On to `CC(C)(C)NC(=O)Nc1cc(Cl)cc(Cl)c1O` [Compound 31], for which the IC50 at hPin1 is under 1 µM.

In the case of `Oc1c(Cl)cc(-c2nc3ccccc3s2)cc1NC(=S)NCc1ccccc1` [Compound 637], at hPin1, the half-maximal inhibitory concentration (IC50) lay in the range of 1 to 10 µM.

With `CC(C)(C)CC(C)(C)NC(=O)Nc1cc(Br)cc(F)c1O` [Compound 126], the IC50 on hPin1 is under 1 µM.

With `Cc1c(Cl)cc(NCc2c(F)cccc2Cl)c(O)c1Cl` [Compound 512], the IC50 on hCyp18 was 50 to 100 µM; at EcParvulin it was 10 to 50 µM; at hPin1 it was 10 to 50 µM; on hFKBP12, over 100 µM; against LpCyp18 it was over 100 µM.

Broadly, the EC50 is the concentration giving half of the maximal effect. As for `O=C(Nc1cc(Cl)c(O)c(Cl)c1)c1ccc2ccccc2c1` [Compound 1297], the half-maximal inhibitory concentration (IC50) at hCyp18 was over 100 µM; at EcParvulin, 10 to 50 µM; at hPin1, under 1 µM; at hFKBP12 it was over 100 µM; at LpCyp18, over 100 µM. Also, the concentration giving a half-maximal response (EC50) at 48 h in series [1] is 50 to 100 µM.

With `CC(C)(C)NC(=O)Nc1cc(NC(=O)NCCc2ccccc2)cc(Cl)c1O` [Compound 622], at hPin1, the IC50 was under 1 µM.

Regarding `Oc1c(Cl)cc(-c2nc3ccccc3s2)cc1NC(=S)NCCc1ccccc1` [Compound 638], the IC50 at hPin1 was 1 to 10 µM.

Regarding `O=C(Cc1ccccc1[N+](=O)[O-])Nc1cc(Cl)c(O)c(Cl)c1` [Compound 1294], the 50% inhibitory concentration (IC50) was over 100 µM on hCyp18; 1 to 10 µM on EcParvulin; under 1 µM at hPin1; over 100 µM at hFKBP12; over 100 µM at LpCyp18.

Consider `O=C(Nc1cc(Cl)c(O)c(Cl)c1)NC12CC3CC(CC(C3)C1)C2` [Compound 719], for which the IC50 at hCyp18 was 50 to 100 µM; on hPin1, under 1 µM; on hFKBP12, over 100 µM; against LpCyp18 it was 10 to 50 µM.

On to `Oc1c(Cl)cc(NC(=S)Nc2ccccc2C(F)(F)F)cc1Cl` [Compound 894], for which the IC50 is over 100 µM at hCyp18; 1 to 10 µM on EcParvulin; under 1 µM on hPin1; over 100 µM on hFKBP12; over 100 µM against LpCyp18.

With `O=[N+]([O-])c1ccc(Sc2ccccc2CNc2ccc(F)c(F)c2O)cc1` [Compound 400], at hPin1, the IC50 was under 1 µM.
